According to patent US20040063790A1, “Methods for inhibition of angiogenesis” (The Scripps Research Institute, priority 1996, published 2004):

Tests used:
[1] = test system: αvβ3-expressing CS-1 cells; assay: Inhibition of cell attachment assay; type: cell-based, hamster
Protocol: As one means to determine integrin receptor specificity of the antagonists of this invention, inhibition of cell attachment assays were performed as described below.
Briefly, CS-1 hamster melanoma cells lacking expression of αvβ3 and αvβ5 were first transfected with an plasmid for expressing the […] as previously described by Filardo et al., J. Cell Biol., 130:441-450 (1995). Specificity of potential αvβ3 antagonists was determined by the ability to block the binding of αvβ3-expressing CS-1 cells to VN or laminin coated plates. As an example of a typical assay, the wells were first coated with 10 μg/ml substrate overnight. After rinsing and blocking with 1% heat-denatured BSA in PBS at room temperature for 30 minutes, peptide 85189 (SEQ ID NO: 15) over a concentration range of 0.0001 μM to 100 μM, was separately mixed with CS-1 cells for applying to wells with a cell number of 50, 000 cells/well. After a 10-15 minute incubation at 37° C., the solution containing the cells and peptides was discarded. The number of attached cells was then determined following staining with 1% crystal violet. Cell associated crystal violet was eluted by the addition of 100 microliters (μl) of 10% acetic acid. Cell adhesion was quantified by measuring the optical density of the eluted crystal violet at a wave length of 600 nm.

[2] = test system: tumor-induced angiogenesis; assay: CAM assay, tumor-induced angiogenesis, intravenous application; type: in vivo, chick; conditions: intravenous injection
Protocol: Angiogenesis was induced in the CAM assay system by direct apposition of a tumor fragment on the CAM. Preparation of the chick embryo CAM was identical to the procedure described above. Instead of a filter paper disk, a 50 milligram (mg) to 55 mg in weight fragment of one of human melanoma tumor M21-L, human lung carcinoma tumor UCLAP-3, human pancreatic carcinoma cell line FG (Cheresh et al., Cell 58:945-953, 1989), or human laryngeal carcinoma cell line HEp3, all of which are αvβ3 negative tumors, was placed on the CAM in an area originally devoid of blood vessels.
The M21-L human melanoma cell line, UCLAP-3 human lung carcinoma cell line, FG pancreatic carcinoma cell line, or HEp3 human laryngeal carcinoma cell line, all αvβ3 negative, were used to grow the solid human tumors on the CAMs of chick embryos. A single cell suspension of 8×10^6 M21-L, UCLAP-3, and FB or 5×10^5 HEp3 cells was first applied to the CAMs in a total volume of 30 μl of sterile HBSS. The windows were sealed with tape and the embryos were incubated for 7 days to allow growth of human tumor lesions. At the end of 7 days, now a 17-day embryo, the tumors were resected from the CAMs and trimmed free of surrounding CAM tissue. […]
The effects of peptide exposure to tumor-induced vasculature in the CAM assay system was also assessed. […]

cyclo (RGDfV) [Peptide 66203]
inhibition of β3-expressing CS-1 cell adhesion to laminin ([1]; laminin): but not laminin
inhibition of β3-expressing CS-1 cell adhesion to vitronectin ([1]; vitronectin): inhibited
inhibition of tumor-induced blood vessel formation [2]: formation of blood vessels was inhibited
